Measurements from ChEMBL document CHEMBL4014318, “Rationalized Computer-Aided Design of Matrix-Metalloprotease-Selective Prodrugs” (J Med Chem, 2017).
Blank lines part the entries; values can stand above or below the compound they belong to. Where a SMILES comes first, the peptide text is derived from it. [ ]: non-standard residue; d: D form. The star is where a group is joined. ξ: configuration not given here. X1 = COc1cccc2c1C(=O)c1c(O)c3c(c(O)c1C2=O)C[C@](O)(C(=O)CO)C[C@H]3O[C@@H]1C[C@@H](N*)[C@H](O)[C@@H](C)O1; X2 = COc1cccc2c1C(=O)c1c(O)c3c(c(O)c1C2=O)C[C@@](O)(C(=O)CO)C[C@@H]3O[C@H]1C[C@H](N*)[C@@H](O)[C@H](C)O1; Dnp = O=[N+]([O-])c1ccc(*)c([N+](=O)[O-])c1; ξhPhe = NC(CCc1ccccc1)C(=O)O; ξCha = NC(CC1CCCCC1)C(=O)O; Cbz = O=C(OCc1ccccc1)*; Bn = c1ccc(C*)cc1

Tests used:
[1] = target: T1, Matrix metalloproteinase-9 (Homo sapiens, UniProt P14780); test: Prodrug activation assessed as recombinant human MMP9-mediated Cbz-Glu-Pro-Leu-Gly formation at 10 uM after 12 hrs by LC-MS analysis
[2] = Retention time of compound by LC-MS analysis
[3] = target: T2, Matrix metalloproteinase-14 (Homo sapiens, UniProt P50281); test: Prodrug activation assessed as recombinant human MMP14-mediated Ser(O-benzyl)-Tyr-Leu-doxorubicin formation at 10 uM after 12 hrs by LC-MS analysis
[4] = target: T3, 72 kDa type IV collagenase (Homo sapiens, UniProt P08253); test: Prodrug activation assessed as recombinant human MMP2-mediated Cbz-Glu-Pro-Leu-Gly formation at 10 uM after 12 hrs by LC-MS analysis
[5] = target: T1, Matrix metalloproteinase-9; test: Prodrug activation assessed as recombinant human MMP9-mediated Ser(O-benzyl)-Tyr-Leu-doxorubicin formation at 10 uM after 12 hrs by LC-MS analysis
[6] = target: T2, Matrix metalloproteinase-14; test: Prodrug activation assessed as recombinant human MMP14-mediated Cbz-Glu-Pro-Leu-Gly metabolite at 10 uM after 12 hrs by LC-MS analysis; type: ADME
[7] = target: T3, 72 kDa type IV collagenase; test: Prodrug activation assessed as recombinant human MMP2-mediated Ser(O-benzyl)-Tyr-Leu-doxorubicin formation at 10 uM after 12 hrs by LC-MS analysis
[8] = test system: U-87 MG; test: Cytotoxicity against human U87MG cells treated with MJ02 assessed as reduction in cell survival after 96 hrs by MTT assay; type: functional, cell-based, U-87MG ATCC
[9] = target: T1, Matrix metalloproteinase-9; test: Prodrug activation assessed as recombinant human MMP9-mediated compound cleavage at 10 uM after 12 hrs by LC-MS analysis
[10] = Retention time of compound by RP-HPLC analysis
[11] = test system: Liver; test: Prodrug activation in Balb/c immunodeficient nude mouse xenografted with human HT1080 cells assessed as half life for prodrug in liver after 60 mins by LC-MS analysis; type: tissue-based; conditions: 1 h
[12] = target: T3, 72 kDa type IV collagenase; test: Prodrug activation assessed as recombinant human MMP2-mediated Cbz-Gly-Pro-Ile-Gln-Glu-Hof formation at 10 uM after 12 hrs by LC-MS analysis
[13] = target: T3, 72 kDa type IV collagenase; test: Prodrug activation assessed as recombinant human MMP2-mediated Leu-doxorubicin formation at 10 uM after 12 hrs by LC-MS analysis
[14] = Prodrug activation in Balb/c immunodeficient nude mouse xenografted with human HT1080 cells assessed as half life for prodrug in tumor homogenates after 60 mins by LC-MS analysis; type: tissue-based, Neoplasm; conditions: tissue homogenate, 1 h
[15] = target: T2, Matrix metalloproteinase-14; test: Prodrug activation assessed as recombinant human MMP14-mediated compound cleavage at 10 uM after 12 hrs by LC-MS analysis
[16] = test system: U-87 MG; test: Cytotoxicity against human U87MG cells treated with MJ02 assessed as reduction in cell survival after 96 hrs in presence of MMP inhibitor GM6001 by MTT assay; type: functional, cell-based, U-87MG ATCC
[17] = test system: Kidney; test: Prodrug activation in Balb/c immunodeficient nude mouse xenografted with human HT1080 cells assessed as half life for prodrug in kidney after 60 mins by LC-MS analysis; type: tissue-based; conditions: 1 h
[18] = test system: U-87 MG; test: Cytotoxicity against human U87MG cells assessed as reduction in cell survival after 96 hrs by MTT assay; type: functional, cell-based, U-87MG ATCC
[19] = test system: Plasma; test: Prodrug activation in Balb/c immunodeficient nude mouse xenografted with human HT1080 cells assessed as half life for prodrug in plasma after 60 mins by LC-MS analysis; type: cell-free; conditions: 1 h

T3 sequence (P08253 whole entry): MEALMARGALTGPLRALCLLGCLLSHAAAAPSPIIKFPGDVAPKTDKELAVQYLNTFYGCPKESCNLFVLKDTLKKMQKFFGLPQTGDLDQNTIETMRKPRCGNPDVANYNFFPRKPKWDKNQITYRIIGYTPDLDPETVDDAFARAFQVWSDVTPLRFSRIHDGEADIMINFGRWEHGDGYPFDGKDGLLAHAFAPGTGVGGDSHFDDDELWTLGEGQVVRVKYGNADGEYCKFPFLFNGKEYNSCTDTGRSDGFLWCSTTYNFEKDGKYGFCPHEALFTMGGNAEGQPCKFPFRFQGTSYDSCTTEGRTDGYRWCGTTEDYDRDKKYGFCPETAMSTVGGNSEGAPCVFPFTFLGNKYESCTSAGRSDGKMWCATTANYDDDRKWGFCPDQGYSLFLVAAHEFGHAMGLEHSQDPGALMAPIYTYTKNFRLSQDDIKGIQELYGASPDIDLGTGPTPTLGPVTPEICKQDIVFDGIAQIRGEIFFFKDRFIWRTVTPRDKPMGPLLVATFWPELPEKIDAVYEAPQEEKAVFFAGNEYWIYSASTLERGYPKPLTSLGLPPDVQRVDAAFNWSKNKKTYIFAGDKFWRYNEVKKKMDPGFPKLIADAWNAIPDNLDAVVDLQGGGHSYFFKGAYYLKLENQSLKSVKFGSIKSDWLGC
T1 sequence (P14780 whole entry): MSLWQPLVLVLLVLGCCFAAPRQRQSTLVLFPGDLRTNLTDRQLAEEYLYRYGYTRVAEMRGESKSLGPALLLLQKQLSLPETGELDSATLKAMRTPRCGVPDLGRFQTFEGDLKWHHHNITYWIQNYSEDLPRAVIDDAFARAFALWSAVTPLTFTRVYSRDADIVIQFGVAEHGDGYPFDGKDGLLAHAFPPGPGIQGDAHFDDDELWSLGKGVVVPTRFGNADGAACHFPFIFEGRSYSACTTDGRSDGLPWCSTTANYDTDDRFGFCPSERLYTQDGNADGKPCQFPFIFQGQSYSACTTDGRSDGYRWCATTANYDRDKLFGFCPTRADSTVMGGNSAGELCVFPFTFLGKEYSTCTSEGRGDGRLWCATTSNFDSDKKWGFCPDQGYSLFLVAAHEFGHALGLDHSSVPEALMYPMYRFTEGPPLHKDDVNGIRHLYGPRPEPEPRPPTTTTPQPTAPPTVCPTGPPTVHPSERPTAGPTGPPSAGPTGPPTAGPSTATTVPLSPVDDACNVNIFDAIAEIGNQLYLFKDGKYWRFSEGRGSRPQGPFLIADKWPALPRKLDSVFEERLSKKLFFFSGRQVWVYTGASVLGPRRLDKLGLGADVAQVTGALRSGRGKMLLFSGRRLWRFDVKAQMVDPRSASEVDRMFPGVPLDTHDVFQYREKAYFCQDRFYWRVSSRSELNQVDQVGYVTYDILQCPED

Drug metabolism [1]: Metabolite_Detected | Drug metabolism [3]: Metabolite_Detected | Drug metabolism [4]: Metabolite_Detected | Drug metabolism [5]: Metabolite_Detected | Drug metabolism [6]: Metabolite_Detected | Drug metabolism [7]: Metabolite_Detected
Compound: COc1cccc2c1C(=O)c1c(O)c3c(c(O)c1C2=O)C[C@@](O)(C(=O)CO)C[C@@H]3O[C@H]1C[C@H](NC(=O)[C@H](CC(C)C)NC(=O)[C@H](Cc2ccc(O)cc2)NC(=O)[C@H](COCc2ccccc2)NC(=O)CNC(=O)[C@H](CC(C)C)NC(=O)[C@@H]2CCCN2C(=O)[C@H](CCC(=O)O)NC(=O)OCc2ccccc2)[C@@H](O)[C@H](C)O1 (Cbz-EPLGS(Bn)YL-X2)
Retention time [2]: 3.63 min

Compound: COc1cccc2c1C(=O)c1c(O)c3c(c(O)c1C2=O)C[C@@](O)(C(=O)CO)C[C@@H]3O[C@H]1C[C@H](NC(=O)[C@@H](N)CC(C)C)[C@H](O)[C@H](C)O1 [LEURUBICIN]
IC50 [8]: 600 nM | Retention time [2]: 2.08 min

Compound: O=C(O)CNC(=O)C(CC1CCCCC1)NC(=O)[C@@H]1CCCN1c1ccc([N+](=O)[O-])cc1[N+](=O)[O-] (stereo partly drawn) (Dnp-Pro-[ξCha]-Gly-OH)
Retention time [2]: 2.3 min

Compound: COc1cccc2c1C(=O)c1c(O)c3c(c(O)c1C2=O)C[C@@](O)(C(=O)CO)C[C@@H]3O[C@H]1C[C@H](NC(=O)[C@H](CC(C)C)NC(=O)[C@H](Cc2ccc(O)cc2)NC(=O)[C@@H](N)COCc2ccccc2)[C@@H](O)[C@H](C)O1
Retention time [2]: 3.23 min

Compound: CC[C@H](C)[C@H](NC(=O)[C@@H]1CCCN1C(=O)CNC(=O)OCc1ccccc1)C(=O)N[C@@H](CCC(N)=O)C(=O)N[C@@H](CCC(=O)O)C(=O)NC(CCc1ccccc1)C(=O)O (stereo partly specified) (Cbz-GPIQE[ξhPhe]-OH)
Retention time [2]: 2.83 min

Drug metabolism [9]: Metabolite_Notdetected | t1/2 [11]: >= 17 min | Drug metabolism [12]: Metabolite_Detected | Drug metabolism [13]: Metabolite_Detected | t1/2 [14]: >= 8.8 min | Drug metabolism [15]: Metabolite_Notdetected | t1/2 [17]: >= 38.1 min | t1/2 [19]: > 1.5 h
Compound: CC[C@H](C)[C@H](NC(=O)[C@@H]1CCCN1C(=O)CNC(=O)OCc1ccccc1)C(=O)N[C@@H](CCC(N)=O)C(=O)N[C@@H](CCC(=O)O)C(=O)NC(CCc1ccccc1)C(=O)N[C@@H](CC(C)C)C(=O)N[C@@H]1C[C@@H](O[C@@H]2C[C@@](O)(C(=O)CO)Cc3c(O)c4c(c(O)c32)C(=O)c2c(OC)cccc2C4=O)O[C@H](C)[C@H]1O (stereo partly drawn) (Cbz-GPIQE[ξhPhe]L-X1)
Retention time [10]: 3.58 min | IC50 [16]: > 100000 nM | IC50 [18]: 5000 nM

Compound: CC(C)C[C@H](NC(=O)[C@@H]1CCCN1C(=O)[C@H](CCC(=O)O)NC(=O)OCc1ccccc1)C(=O)NCC(=O)O (Cbz-EPLG-OH)
Retention time [2]: 2.87 min

Compound: COc1cccc2c1C(=O)c1c(O)c3c(c(O)c1C2=O)C[C@@](O)(C(=O)CO)C[C@@H]3O[C@H]1C[C@H](N)[C@H](O)[C@H](C)O1 [DOXORUBICIN]
IC50 [18]: 300 nM

Compound: CNc1ccccc1C(=O)NCCCC[C@H](NC(=O)[C@H](C)NC(=O)[C@H](Cc1c[nH]cn1)NC(=O)[C@H](N)CSC)C(N)=O
Retention time [2]: 2.47 min
